{"source": "patent US20060135624A1", "about": "“Natural compound useful for treating diabetes, its preparation and use” (JINGYU LIANG ET AL, priority 2002, published 2006)", "key": {"[1]": {"system": "mouse hyperglycemia induced by alloxan", "test": "Time-effect relation of Sequoyitol to mouse hyperglycemia induced by alloxan", "assay_type": "in vivo, Kunming mice", "details": "for blood-sugar level decreased compared to the control group: Sequoyitol 50 mg/kg p.o. 7 days", "method": "1. Experimental Methods^[1,2] • Alloxan was administrated to each of 30 mice by caudal vein injection with a dose of 65 mg/kg, and the mice were modeled according to the method of documents, divided into 3 groups according to blood-sugar values, […] according to […] of body weight, and the modeling group was administrated with the same volum of distilled water, separately. These administrations were conducted for continuous 7 days, and the mice were fasted for 2 hours before the last administration, and their blood-sugar levels were detected by glucose oxidase method at 1 2, 3 and 5 hours after the last administration."}, "[2]": {"system": "mouse hyperglycemia induced by alloxan", "test": "Effects of Sequoyitol on mouse hyperglycemia induced by alloxan", "assay_type": "in vivo, Kunming mice", "method": "1. Experimental Methods^[1,2] • Among 60 mice, 10 mice were randomly selected as normal group, and the residual mice were administrated with 65 mg/kg alloxan by caudal vein injection, modeled according to the method of documents, and divided into 5 groups according to blood-sugar values, wherein 4 groups were perorally administrated with 25, 50 and 100 mg/kg of Sequoyitol and 75 mg/kg of phenformine according to 0.1 ml/10 g of body weight, respectively, and the normal group and modeling group were administrated with the same volum of distilled water, separately. These administrations were conducted for continuous 7 days. The blood-sugar levels were detected by glucose oxidase method. The pancreatic glands of the mice were soaked in 10% formalin, embedded with paraffin, sliced, and dyed with HE dye."}, "[3]": {"system": "rat hyperglycemia induced by alloxan", "test": "Effect of Sequoyitol on rat hyperglycemia induced by alloxan", "assay_type": "in vivo, SD rats", "method": "1. Experimental Methods^[5,6] • 5 Rats were randomly selected as normal group, the other 55 rats were fasted for 14-16 hours, administrated with 30 mg/kg of Pentobarbital by intra-abdominal injection. After paralyzed, the rats were administrated with 48 mg/kg of alloxan by vena femoralis injection, modeled according to methods of documents, and divided into 5 groups according to blood-sugar level, wherein each group had 11 rats, and 4 groups were orally administrated with 25, 50 and 100 mg/kg of Sequoyitol and 75 mg/kg of phenformine according to 1 ml/100 g of body weight, respectively, and the normal group and modeling group were administrated with the same volum of distilled water. These administrations were conducted for continuous 18 days. The fasting blood-sugar levels of the rats were separately measured at 6th and 12th day after the administration. At the 18th day, blood was collected from arteria femoralis, and the blood sugar level, insulin level, cholesterol content, triglyceride content, malonaldehyde content, and hepatocuprein activity of serum were measured; liver tissue was homogenated, and the malonaldehyde content, and hepatocuprein activity of liver tissue were measured; and pancreatic gland was soaked in 10% formalin, embedded with paraffin, sliced, and dyed with HE."}, "[4]": {"system": "mouse hyperglycemia induced by Streptozocin", "test": "Effect of Sequoyitol on mouse hyperglycemia induced by Streptozocin", "assay_type": "in vivo, Kunming mice", "method": "1. Experimental Methods^[7,8] • Among 66 mice, 10 mice were randomly selected as normal group, and the residual mice were administrated with 160 mg/kg Streptozocin by vena caudalis injection, modeled according to methods of documents, and divided into 5 groups according to blood-sugar level, wherein 4 groups were perorally administrated with 25, 50 and 100 mg/kg of Sequoyitol and 75 mg/kg of phenformine according to 0.1 ml/10 g of body weight, respectively, and the normal group and modeling group were administrated with the same volum of distilled water. These administrations were conducted for continuous 18 days. The blood-sugar levels of the mice were separately measured at 6th and 12th day after the administration. At the 18th day, blood was collected by excising eyeballs, serum was separated, and the blood sugar level, insulin level, cholesterol content, triglyceride content, malonaldehyde content, and hepatocuprein activity of serum were measured; liver tissue was homogenated, and the malonaldehyde content and hepatocuprein activity of liver tissue were measured; and pancreatic gland was soaked in 10% formalin, embedded with paraffin, sliced, and dyed with HE."}, "normal mice [5]": {"system": "normal mice", "test": "Test of acute toxicity by oral administration", "assay_type": "in vivo", "details": "18.95 g/kg and 9.47 g/kg drenched one time; executed after 7 days", "text": "1) Experimental Method • 20 Normal mice (half male and half female) were divided into two groups (each group had 10 mice), and drenched with 18.95 g/kg and 9.47 g/kg one time, wherein the higher dose reached the maximum concentration and the maximum administration volume. The animals' responses were observed. The mice were executed after 7 days, and their organs were macroscopically observed."}, "normal mice [6]": {"system": "normal mice", "test": "General pharmacology in mice", "details": "mouse, in vivo", "text": "(§1) • 1. Guidelines for Studying New Drugs (Pharmacy, Pharmacology, Toxicology), Bureau of Drug Administration, the Ministry of Health of the People's Republic of China • 2. Chen Q I, Methodology for Studying Pharmacology of Chinese Medicine, People' Medical Publishing House, 1st Edition, 1993, 118-119 III. Studies on General Pharmacology • The effects of Sequoyitol on general physical signs and spontaneous movement of normal mice, on Pentobarbital hours of sleep of mice, and on respiratory movement, blood pressure, cardiac rhythm and electrocardiogram of rats were observed."}, "rats": {"system": "rats", "test": "General pharmacology in rats", "details": "rat, in vivo", "text": "as §1"}, "[7]": {"details": "50 and 100 mg/kg Sequoyitol groups, oral 18 days"}, "[8]": {"details": "Sequoyitol 50 mg/kg oral 18 days"}, "[9]": {"details": "Sequoyitol 100 mg/kg oral 18 days"}, "[10]": {"details": "25 and 50 mg/kg Sequoyitol groups, p.o. 18 days"}, "[11]": {"details": "Sequoyitol 100 mg/kg p.o. 18 days"}, "[12]": {"details": "Sequoyitol groups (25, 50, 100 mg/kg p.o. 18 days)"}}, "data": [{"compound": "COC1C(O)C(O)C(O)C(O)C1O", "note": "(stereo not drawn) [Sequoyitol, 5-O-methyl-myo-inositol]", "values": [{"measurement": "effect of alleviating hyperglycemia compared with phenformine", "setting": "[1]; 60 mg/kg Sequoyitol vs 75 mg/kg phenformine", "value": "higher than that of 75 mg/kg phenformine"}, {"measurement": "blood-sugar level decreased compared to the control group", "setting": "[1]; 1 hour after last administration", "value": 100.0, "unit": "mg/dL"}, {"measurement": "blood-sugar level decreased compared to the control group", "setting": "[1]; 2 hours after last administration", "value": 140.7, "unit": "mg/dL"}, {"measurement": "blood-sugar level decreased compared to the control group", "setting": "[1]; 3 hours after last administration", "value": 193.9, "unit": "mg/dL"}, {"measurement": "blood-sugar level decreased compared to the control group", "setting": "[1]; 5 hours after last administration", "value": 174.6, "unit": "mg/dL"}, {"measurement": "alloxan-induced hyperglycemia compared to the control group", "setting": "[2]; Sequoyitol 25 mg/kg p.o. 7 days", "value": "alleviated"}, {"measurement": "blood-sugar level decreased compared to the control group", "setting": "[2]; Sequoyitol 50 mg/kg p.o. 7 days", "value": 195.2, "unit": "mg/dL"}, {"measurement": "blood-sugar level decreased compared to the control group", "setting": "[2]; Sequoyitol 100 mg/kg p.o. 7 days", "value": 306.8, "unit": "mg/dL"}, {"measurement": "number of pancreatic islands and number of islet cells (histopathologic examination) compared to the model group", "setting": "[2]; Sequoyitol groups (25, 50, 100 mg/kg p.o. 7 days)", "value": "increased significantly"}, {"measurement": "hyalinization of interstitial small vessels (histopathologic examination)", "setting": "[3]; [7]", "value": "alleviated"}, {"measurement": "inflammatory cell infiltration (histopathologic examination)", "setting": "[3]; [7]", "value": "reduced"}, {"measurement": "body weight of diabetes rats compared to the control group", "setting": "[3]; 50 and 100 mg/kg Sequoyitol groups, oral, since the 15th day (increased at the 13th day)", "value": "significantly increased"}, {"measurement": "serum insulin level increased compared to the control group", "setting": "[3]; Sequoyitol 25 mg/kg oral 18 days", "value": 1.01, "unit": "μlU/ml"}, {"measurement": "alloxan-induced hyperglycemia compared to the control group", "setting": "[3]; Sequoyitol 25 mg/kg oral, 12th day", "value": "significantly alleviated"}, {"measurement": "blood-sugar level decreased compared to the control group", "setting": "[3]; Sequoyitol 25 mg/kg oral, 18th day", "value": 194.4, "unit": "mg/dL"}, {"measurement": "body weight of diabetes rats compared to the control group", "setting": "[3]; Sequoyitol 25 mg/kg oral, at the 17th day (increased at the 15th day)", "value": "significantly increased"}, {"measurement": "content of cholesterol in serum decreased compared to the control group", "setting": "[3]; [8]", "value": 22.2, "unit": "mg/dL"}, {"measurement": "content of triglyceride in serum decreased compared to the control group", "setting": "[3]; [8]", "value": 15.7, "unit": "mg/dL"}, {"measurement": "serum insulin level increased compared to the control group", "setting": "[3]; [8]", "value": 1.45, "unit": "μl U/ml"}, {"measurement": "blood-sugar level decreased compared to the control group", "setting": "[3]; Sequoyitol 50 mg/kg oral, 6th day", "value": 129.1, "unit": "mg/dL"}, {"measurement": "blood-sugar level decreased compared to the control group", "setting": "[3]; Sequoyitol 50 mg/kg oral, 12th day", "value": 200.7, "unit": "mg/dL"}, {"measurement": "blood-sugar level decreased compared to the control group", "setting": "[3]; Sequoyitol 50 mg/kg oral, 18th day", "value": 223.1, "unit": "mg/dL"}, {"measurement": "activity of hepatocuprein in liver tissue increased compared to the control group", "setting": "[3]; [9]", "value": 18.3, "unit": "NU/mg prot"}, {"measurement": "activity of hepatocuprein in serum increased compared to the control group", "setting": "[3]; [9]", "value": 55.0, "unit": "NU/ml"}, {"measurement": "content of malonaldehyde in liver tissue decreased compared to the control group", "setting": "[3]; [9]", "value": 4.29, "unit": "nmol/mg prot"}, {"measurement": "content of malonaldehyde in serum decreased compared to the control group", "setting": "[3]; [9]", "value": 4.13, "unit": "nmol/dL"}, {"measurement": "serum insulin level increased compared to the control group", "setting": "[3]; [9]", "value": 3.36, "unit": "μlU/ml"}, {"measurement": "blood-sugar level decreased compared to the control group", "setting": "[3]; Sequoyitol 100 mg/kg oral, 6th day", "value": 120, "unit": "mg/dL"}, {"measurement": "blood-sugar level decreased compared to the control group", "setting": "[3]; Sequoyitol 100 mg/kg oral, 12th day", "value": 218.2, "unit": "mg/dL"}, {"measurement": "blood-sugar level decreased compared to the control group", "setting": "[3]; Sequoyitol 100 mg/kg oral, 18th day", "value": 240.3, "unit": "mg/dL"}, {"measurement": "number of pancreatic islands and number of cells in pancreatic islands (histopathologic examination) compared to the model group", "setting": "[3]; Sequoyitol groups (25, 50, 100 mg/kg oral 18 days)", "value": "increased significantly"}, {"measurement": "content of cholesterol in serum compared to the control group", "setting": "[4]; [10]", "value": "decreased"}, {"measurement": "content of malonaldehyde in liver tissue compared to the control group", "setting": "[4]; [10]", "value": "significantly decreased"}, {"measurement": "content of triglyceride in serum compared to the control group", "setting": "[4]; [10]", "value": "significantly decreased"}, {"measurement": "serum insulin level compared to the control group", "setting": "[4]; 50 and 100 mg/kg Sequoyitol groups, p.o. 18 days", "value": "significantly increased"}, {"measurement": "body weight of diabetes mice compared to the control group", "setting": "[4]; 50 and 100 mg/kg Sequoyitol groups, p.o., since the 7th day", "value": "significantly increased"}, {"measurement": "serum insulin level compared to the control group", "setting": "[4]; Sequoyitol 25 mg/kg p.o. 18 days", "value": "increased"}, {"measurement": "body weight of diabetes mice compared to the control group", "setting": "[4]; Sequoyitol 25 mg/kg p.o., since the 11th day", "value": "increased"}, {"measurement": "blood-sugar level decreased compared to the control group", "setting": "[4]; Sequoyitol 50 mg/kg p.o., 12th day", "value": 121.4, "unit": "mg/dL"}, {"measurement": "content of cholesterol in serum compared to the control group", "setting": "[4]; [11]", "value": "significantly decreased"}, {"measurement": "content of malonaldehyde in liver tissue compared to the control group", "setting": "[4]; [11]", "value": "highly significantly decreased"}, {"measurement": "content of triglyceride in serum compared to the control group", "setting": "[4]; [11]", "value": "highly significantly decreased"}, {"measurement": "hyalinization of interstitial small vessels (histopathologic examination)", "setting": "[4]; [11]", "value": "alleviated"}, {"measurement": "serum insulin level increased compared to the control group", "setting": "[4]; [11]", "value": 6.53, "unit": "μlU/ml"}, {"measurement": "activity of hepatocuprein in serum compared to the control group", "setting": "[4]; [12]", "value": "highly significantly increased"}, {"measurement": "inflammatory cell infiltration (histopathologic examination)", "setting": "[4]; [12]", "value": "inhibited"}, {"measurement": "number of pancreatic islands and number of cells in pancreatic islands (histopathologic examination) compared to the model group", "setting": "[4]; [12]", "value": "increased significantly"}, {"measurement": "main organs under macroscopic observation", "setting": "normal mice [5]", "value": "free of abnormality"}, {"measurement": "effect on Pentobarbital hours of sleep of mice", "setting": "normal mice [6]", "value": "did not significantly affect"}, {"measurement": "effect on spontaneous movement of mice", "setting": "normal mice [6]", "value": "did not significantly affect"}, {"measurement": "effect on blood pressure of rats", "setting": "rats", "value": "did not significantly affect"}, {"measurement": "effect on cardiac rhythm of rats", "setting": "rats", "value": "did not significantly affect"}, {"measurement": "effect on electrocardiogram of rats", "setting": "rats", "value": "did not significantly affect"}, {"measurement": "effect on respiratory movement of rats", "setting": "rats", "value": "did not significantly affect"}]}]}
